Measured values taken from patent US20240043860A1, “NOVEL HYDROXYPHENYLPYRUVATE DIOXYGENASE POLYPEPTIDES AND METHODS OF USE THEREOF” (Syngenta Crop Protection AG, priority 2020, published 2024).

Experiments:
[1] = tested on: HPPD variant AVESA V209 (SEQ ID NO: 17); test: biochemical; format: biochemical, Avena sativa; settings: SEQ ID NO: 17 compared to control SEQ ID NO: 122
Method: (§1) 25 ul of the overnight cultures were inoculated into fresh 96-deepwell block containing 1 ml Formedium Autoinduction Media (AIM). The AIM cultures were grown for 3h at 37° C. (900rpm) and then transferred to 20° C. overnight (900rpm) to allow protein expression. The overnight cultures were centrifuged and 500 ul of Cellytic B (Sigma Aldrich) was added to resuspend the cell pellets. The coupled HGO assay (Siehl et al, 2014) is used to generate IC50 values for the HPPD variants of interest.
(§2) E. coli BL21 (DE3) cells were transformed with a pET24a vector containing a C-terminally his-tagged Arabidopsis HGO gene, grown and induced overnight as described for the HPPD variants above. The cell pellet was resuspended in phosphate buffered saline at pH 7.4 containing 10% Glycerol, 1mm Tris[2-carboxyethyl] phosphine-HCl (TCEP) plus 30 mM Imidazole and lysed using lysozyme/benzonase. The extract was clarified by low speed centrifugation and purified in the same buffer down a 1 ml His Gravitrap column. The bound HGO was eluted in 0.25M imidazole and the fractions pooled and beaded into liquid nitrogen. All procedures apart from the centrifugation and beading steps were carried out under a nitrogen atmosphere.
(§3) The coupled HGO assay is carried out by adding 10 ul of HPPD extract to a 96-well plate and then adding 40 ul of reaction buffer (50 mM Bis Tris Propane, pH7.0, 25 mM sodium-L-ascorbate, 400μM mercaptoethanol, 50 μM Fe(II)SO4). The plates are left to incubate for 5 minutes on ice. […] 200 ul of HPP/HGO (197 μM hydroxyphenylpyruvic acid, 16 μl/ml Homogentisic Acid Oxidase in reaction buffer as described above) buffer is then added to the well and the reaction is regularly monitored (e.g. every 30 seconds-5 minutes) for absorbance at 330 nm for a given time period (e.g., for between 15-60 minutes). The data can then be used to calculate the IC50 value for each HPPD variant of interest.

[2] = molecular target: HPPD variant AVESA V209 (SEQ ID NO: 17) (Avena sativa, UniProt A0ACD5V6K6, A327R/I340E/L359M/R214G/V218I/V260A); test: biochemical; format: biochemical
Method: as §1, §2, §3

[3] = tested on: HPPD variant ALOME V209 (SEQ ID NO: 19); test: coupled HGO assay; format: biochemical, Alopecurus myosuroides
Method: (§4) DNA sequences (SEQ ID NOs: 65-118, 128, 130, 131, and 133), synthesized for expression in E. coli, by GeneWiz (USA) to encode HPPD variants (SEQ ID NOs: 5-58, 122, 124, 125 and 127) derived from either Avena sativa (SEQ ID NOs: 122, 124), Alopecurus myosuroides (SEQ ID NO: 126) or Apera spica-venti (SEQ ID NOs: 123, 125) were transformed into E coli BL21 (DE3) (New England Biolabs) and grown in 0.5 ml Terrific broth +50 ug/ml Kanamycin media in a 96-deepwell block overnight (37° C., 900rpm). 25 ul of the overnight cultures were inoculated into fresh 96-deepwell block containing 1 ml Formedium Autoinduction Media (AIM). The AIM cultures were grown for 3h at 37° C. (900rpm) and then transferred to 20° C. overnight (900rpm) to allow protein expression. The overnight cultures were centrifuged and 500 ul of Cellytic B (Sigma Aldrich) was added to resuspend the cell pellets. The coupled HGO assay (Siehl et al, 2014) is used to generate IC50 values for the HPPD variants of interest.
as §2, §3

[4] = tested on: HPPD variant ALOME V200 (SEQ ID NO: 7); test: coupled HGO assay; format: biochemical, Alopecurus myosuroides
Method: as §4, §2, §3

[5] = tested on: HPPD variant AVESA V208 (SEQ ID NO: 14); test: biochemical; format: biochemical, Avena sativa; settings: SEQ ID NO: 14 compared to control SEQ ID NO: 122
Method: as §1, §2, §3

Chain of HPPD variant AVESA V209 (SEQ ID NO: 17) (Avena sativa, UniProt A0ACD5V6K6, A327R/I340E/L359M/R214G/V218I/V260A) (A0ACD5V6K6 entry or part of it R214G/V218I/V260A/A327R/I340E/L359M): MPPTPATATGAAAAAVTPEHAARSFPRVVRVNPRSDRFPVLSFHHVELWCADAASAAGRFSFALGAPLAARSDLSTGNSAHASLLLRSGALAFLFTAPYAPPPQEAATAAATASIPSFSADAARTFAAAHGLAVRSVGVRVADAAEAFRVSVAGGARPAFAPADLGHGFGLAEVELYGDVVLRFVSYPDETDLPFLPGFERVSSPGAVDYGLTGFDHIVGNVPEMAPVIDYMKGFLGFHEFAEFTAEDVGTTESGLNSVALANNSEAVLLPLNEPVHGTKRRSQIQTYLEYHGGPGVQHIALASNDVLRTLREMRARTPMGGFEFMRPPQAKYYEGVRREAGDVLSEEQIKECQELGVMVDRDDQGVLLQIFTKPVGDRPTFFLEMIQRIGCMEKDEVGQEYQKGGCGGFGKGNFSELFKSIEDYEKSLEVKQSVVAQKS

Compound | increase of the IC50 value [1] [fold] | IC50 [2] [µM] | IC50 [3] [µM] | IC50 [4] [µM] | increase of the IC50 value [5] [fold]
Cn1nnnc1NC(=O)c1ccc(C(F)(F)F)nc1-n1cncn1 [Herbicide D, N-(1-methyltetrazol-5-yl)-2-(1,2,4-triazol-1-yl)-6-(trifluoromethyl)pyridine-3-carboxamide] | ~14 | 106 | 96.9 | 77.8 | –
COc1ccc(-n2nc(C)cc(C(=O)C3C(=O)CCCC3=O)c2=O)cc1OC [Herbicide C, dioxopyritrione] | – | – | – | – | > 200
